Laboratory results reported in paper PMC8708274, “Unveiling the Membrane and Cell Wall Action of Antimicrobial Cyclic Lipopeptides: Modulation of the Spectrum of Activity” (Pharmaceutics, 2021).
Like-named read-outs stand apart in the source and are kept apart here. Positions of bridges follow the written chain, without caps; N, C: chain ends. Non-standard residues stand in square brackets, D forms with d. Residues, ends and D or L forms follow the SMILES beside them. *: point of attachment. Lauroyl = CCCCCCCCCCCC(=O)*; Decanoyl = CCCCCCCCCC(=O)*; Nonanoyl = CCCCCCCCC(=O)*; Nle = CCCC[C@H](N)C(=O)O; Octanoyl = CCCCCCCC(=O)*; Dab = NCC[C@H](N)C(=O)O; Hexanoyl = CCCCCC(=O)*

How the values were obtained:
[1] = Kinetics of insertion into monolayers; assay type: binding; details: 25 min after injection, 10 mM Tris pH 7.4, 25 °C, average of three independent experiments (error < 10%); for Increase in surface pressure (Δπ), POPE/POPG: POPE/POPG 6:4, initial pressure 32 mN·m^−1, peptide 0.48 μM; for Increase in surface pressure (Δπ), POPC / Increase in surface pressure (Δπ), POPG: initial pressure 32 mN·m^−1, peptide 0.48 μM
Experimental: (§1) Monolayer studies were performed at room temperature (25 °C) on a monolayer system (NIMA Technology, Coventry, UK) by using a cylindrical PTFE (Teflon®, Wilmington, DE, USA) trough (5 cm diameter) containing a continuously stirred aqueous phase (12 mL, 10 mM Tris pH 7.4) and a Wilhelmy platinum plate connected to an electrobalance. The system was enclosed in a Plexiglass box to reduce surface contamination, and before each run, the plate and the trough were cleaned with hot water at >70 °C to avoid carryover of lipid or peptide. Monolayers of POPG, POPE/POPG (6:4), POPC, or LPS were formed by applying small drops of the lipid stock solutions in CHCl3 on the aqueous subphase with a microsyringe (Hamilton Co., Reno, NV, USA) to achieve a surface pressure of 32 mN·m^−1. After 10 min, allowing for solvent evaporation, a known aliquot of peptide was added without disturbance of the monolayer via an inlet port, and the surface pressure was continuously monitored.

[2] = tested on: Escherichia coli ATTC 25922; assay type: cell-based
Experimental: (§2) The minimal peptide concentration required to prevent the growth of a given test organism was determined after incubation overnight at 37 °C and was defined as the MIC. Activity was determined in representative bacteria, Escherichia coli ATTC 25922, Pseudomonas aeruginosa ATTC 27853, and Staphylococcus aureus ATTC 25923, using the broth microdilution method. Serial-two-fold dilutions of peptide (from 0.06 to 32 μg/mL) were performed in Mueller–Hinton broth (MHB) culture medium in sterile 96-well polypropylene microtiter plates inoculated with a final concentration of 5 × 10^5 CFU·mL^−1 of bacteria in each well. Bacteria were in the pre-exponential phase. Each determination was done by triplicate. In order to be considered acceptable, the three MIC results have to differ in only in one well, and the result was always given as the higher of the three. Drug-free and microorganism-free wells were used as positive and negative controls, respectively. Bacterial growth was visually determined on the basis of turbidity.

[3] = tested on: Pseudomonas aeruginosa ATTC 27853; assay type: cell-based
Experimental: as §2

[4] = tested on: Staphylococcus aureus ATTC 25923; assay type: cell-based
Experimental: as §2

[5] = Kinetics of insertion into monolayers; assay type: binding, Salmonella enterica serotype Minnesota Re 595; details: initial pressure 32 mN·m^−1, peptide 0.48 μM, 25 min after injection, 10 mM Tris pH 7.4, 25 °C, average of three independent experiments (error < 10%)
Experimental: as §1

[6] = broth microdilution, MHB, 5 × 10^5 CFU/mL, overnight 37 °C, triplicate, higher of the three

| Structure (SMILES) | Increase in surface pressure (Δπ), POPE/POPG [1] [mN·m^−1] | Increase in surface pressure (Δπ), POPC [1] [mN·m^−1] | Increase in surface pressure (Δπ), POPG [1] [mN·m^−1] | MIC EC ([2]; ATTC 25922) [µM] | MIC EC [2, 6] [µg/mL] | MIC PA ([3]; ATTC 27853) [µM] | MIC PA [3, 6] [µg/mL] | MIC SA ([4]; ATTC 25923) [µM] | MIC SA [4, 6] [µg/mL] | Increase in surface pressure (Δπ), LPS [5] [mN·m^−1] |
| --- | --- | --- | --- | --- | --- | --- | --- | --- | --- | --- |
| CCCCCC(=O)N[C@@H](CCN)C(=O)N[C@H](C(=O)N[C@@H](CCN)C(=O)N[C@H]1CSSC[C@H](C(N)=O)NC(=O)[C@H](CCN)NC(=O)[C@H](CCN)NC(=O)[C@H](CC(C)C)NC(=O)[C@@H](Cc2ccccc2)NC(=O)[C@H](CCN)NC1=O)[C@@H](C)O [spB-1] (Hexanoyl-[Dab]T[Dab]C[Dab][dF]L[Dab][Dab][dC]-NH2; disulfide 4-10) | 4.6 | 0.9 | 5.7 | > 27 | > 32 | > 27 | > 32 | > 27 | > 32 | 12.1 |
| CCCCCCCC(=O)N[C@@H](CCN)C(=O)N[C@H](C(=O)N[C@@H](CCN)C(=O)N[C@H]1CSSC[C@H](C(N)=O)NC(=O)[C@H](CCN)NC(=O)[C@H](CCN)NC(=O)[C@H](CC(C)C)NC(=O)[C@@H](Cc2ccccc2)NC(=O)[C@H](CCN)NC1=O)[C@@H](C)O [spB-2] (Octanoyl-[Dab]T[Dab]C[Dab][dF]L[Dab][Dab][dC]-NH2; disulfide 4-10) | 5.5 | 1.8 | 7.0 | 13 | 16 | 6.6 | 8 | 26 | > 32 | 12.6 |
| CCCCCCCCCCCC(=O)N[C@@H](CCN)C(=O)N[C@H](C(=O)N[C@@H](CCN)C(=O)N[C@H]1CSSC[C@H](C(N)=O)NC(=O)[C@H](CCN)NC(=O)[C@H](CCN)NC(=O)[C@H](CC(C)C)NC(=O)[C@@H](Cc2ccccc2)NC(=O)[C@H](CCN)NC1=O)[C@@H](C)O [spB-4] (Lauroyl-[Dab]T[Dab]C[Dab][dF]L[Dab][Dab][dC]-NH2; disulfide 4-10) | 5.0 | 2.5 | 6.7 | 13 | 16 | 6.3 | 8 | 6.3 | 8 | 12.2 |
| CCCCCCCC(=O)N[C@@H](CCN)C(=O)N[C@H](C(=O)N[C@@H](CCN)C(=O)N[C@H]1CSSC[C@H](C(N)=O)NC(=O)[C@H](CCN)NC(=O)[C@H](CCN)NC(=O)[C@H](CCCC)NC(=O)[C@@H](Cc2ccccc2)NC(=O)[C@H](CCN)NC1=O)[C@@H](C)O [spB-5] (Octanoyl-[Dab]T[Dab]C[Dab][dF][Nle][Dab][Dab][dC]-NH2; disulfide 4-10) | 6.5 | 0.8 | 7.3 | 1.7 | 2 | 3.3 | 4 | > 26 | > 32 | 10.6 |
| CCCCCCCCC(=O)N[C@@H](CCN)C(=O)N[C@H](C(=O)N[C@@H](CCN)C(=O)N[C@H]1CSSC[C@H](C(N)=O)NC(=O)[C@H](CCN)NC(=O)[C@H](CCN)NC(=O)[C@H](CCCC)NC(=O)[C@@H](Cc2ccccc2)NC(=O)[C@H](CCN)NC1=O)[C@@H](C)O [spB-6] (Nonanoyl-[Dab]T[Dab]C[Dab][dF][Nle][Dab][Dab][dC]-NH2; disulfide 4-10) | 5.0 | 0.4 | 6.0 | 1.6 | 2 | 0.82 | 1 | 13 | 16 | 10.8 |
| CCCCCCCCCCCC(=O)N[C@@H](CCN)C(=O)N[C@H](C(=O)N[C@@H](CCN)C(=O)N[C@H]1CSSC[C@H](C(N)=O)NC(=O)[C@H](CCN)NC(=O)[C@H](CCCNC(=N)N)NC(=O)[C@H](CCCC)NC(=O)[C@@H](Cc2ccccc2)NC(=O)[C@H](CCN)NC1=O)[C@@H](C)O [spB-9] (Lauroyl-[Dab]T[Dab]C[Dab][dF][Nle]R[Dab][dC]-NH2; disulfide 4-10) | 6.0 | 2.2 | 3.4 | 3.0 | 4 | 3.0 | 4 | 1.5 | 2 | 11.1 |
| CCCCCC(=O)N[C@@H](CCN)C(=O)N[C@H](C(=O)N[C@@H](CCN)C(=O)N[C@H]1CSSC[C@H](C(N)=O)NC(=O)[C@H](CCN)NC(=O)[C@H](CCN)NC(=O)[C@H](CC(C)C)NC(=O)[C@@H](CC(C)C)NC(=O)[C@H](CCN)NC1=O)[C@@H](C)O [spE-1] (Hexanoyl-[Dab]T[Dab]C[Dab][dL]L[Dab][Dab][dC]-NH2; disulfide 4-10) | 4.1 | 0.3 | 2.8 | > 28 | > 32 | > 28 | > 32 | > 28 | > 32 | 10.6 |
| CCCCCCCC(=O)N[C@@H](CCN)C(=O)N[C@H](C(=O)N[C@@H](CCN)C(=O)N[C@H]1CSSC[C@H](C(N)=O)NC(=O)[C@H](CCN)NC(=O)[C@H](CCN)NC(=O)[C@H](CC(C)C)NC(=O)[C@@H](CC(C)C)NC(=O)[C@H](CCN)NC1=O)[C@@H](C)O [spE-2] (Octanoyl-[Dab]T[Dab]C[Dab][dL]L[Dab][Dab][dC]-NH2; disulfide 4-10) | 6.4 | 0.6 | 4.3 | 14 | 16 | 3.4 | 4 | > 27 | > 32 | 9.5 |
| CCCCCCCCCC(=O)N[C@@H](CCN)C(=O)N[C@H](C(=O)N[C@@H](CCN)C(=O)N[C@H]1CSSC[C@H](C(N)=O)NC(=O)[C@H](CCN)NC(=O)[C@H](CCN)NC(=O)[C@H](CC(C)C)NC(=O)[C@@H](CC(C)C)NC(=O)[C@H](CCN)NC1=O)[C@@H](C)O [spE-3] (Decanoyl-[Dab]T[Dab]C[Dab][dL]L[Dab][Dab][dC]-NH2; disulfide 4-10) | 7.9 | 1.3 | 5.7 | 6.7 | 8 | 1.7 | 2 | 6.7 | 8 | 10.0 |
